Data taken from the kinase profiling compilation of Christmann-Franck et al. (2016).

How the values were obtained:
Assay in all cases: radiometric filter-binding kinase assay, Kinase HotSpot
Settings in all cases: compound 0.5 µM; ATP 10 µM
ACVRL1 (human) = ACVRL1 (human) (UniProt P37023)
PIM2 (human) = PIM2 (human) (UniProt Q9P1W9)
PIM3 (human) = PIM3 (human) (UniProt Q86V86)
RPS6KA5 KD2 (human) = RPS6KA5 KD2 (human) (UniProt O75582)
RPS6KA6 KD1 KD2 (human) = RPS6KA6 KD1 KD2 (human) (UniProt Q9UK32)
IGF1R (human) = IGF1R (human) (UniProt P08069)
CDK1 CCNA2 (human) = CDK1 CCNA2 (human) (UniProt P06493+P20248)
MAPK13 (human) = MAPK13 (human) (UniProt O15264)
MAP3K5 (human) = MAP3K5 (human) (UniProt Q99683)
MAPK12 (human) = MAPK12 (human) (UniProt P53778)
MAPK12 (human), sequence (P53778 whole entry, looked up): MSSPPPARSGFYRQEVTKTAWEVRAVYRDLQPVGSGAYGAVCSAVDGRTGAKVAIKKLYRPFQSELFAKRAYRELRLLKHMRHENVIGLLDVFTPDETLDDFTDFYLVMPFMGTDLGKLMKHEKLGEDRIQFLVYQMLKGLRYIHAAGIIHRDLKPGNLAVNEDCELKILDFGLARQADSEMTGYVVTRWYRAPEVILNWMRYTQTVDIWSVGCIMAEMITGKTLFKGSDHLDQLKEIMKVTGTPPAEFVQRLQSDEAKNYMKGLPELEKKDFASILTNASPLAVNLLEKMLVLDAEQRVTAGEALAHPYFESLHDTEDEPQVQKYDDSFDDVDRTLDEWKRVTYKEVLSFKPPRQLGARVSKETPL

STK33 (human) = STK33 (human) (UniProt Q9BYT3)
PAK4 (human) = PAK4 (human) (UniProt O96013)
MKNK2 (human) = MKNK2 (human) (UniProt Q9HBH9)
EPHA4 (human) = EPHA4 (human) (UniProt P54764)
EPHA4 (human), sequence (P54764 whole entry, looked up): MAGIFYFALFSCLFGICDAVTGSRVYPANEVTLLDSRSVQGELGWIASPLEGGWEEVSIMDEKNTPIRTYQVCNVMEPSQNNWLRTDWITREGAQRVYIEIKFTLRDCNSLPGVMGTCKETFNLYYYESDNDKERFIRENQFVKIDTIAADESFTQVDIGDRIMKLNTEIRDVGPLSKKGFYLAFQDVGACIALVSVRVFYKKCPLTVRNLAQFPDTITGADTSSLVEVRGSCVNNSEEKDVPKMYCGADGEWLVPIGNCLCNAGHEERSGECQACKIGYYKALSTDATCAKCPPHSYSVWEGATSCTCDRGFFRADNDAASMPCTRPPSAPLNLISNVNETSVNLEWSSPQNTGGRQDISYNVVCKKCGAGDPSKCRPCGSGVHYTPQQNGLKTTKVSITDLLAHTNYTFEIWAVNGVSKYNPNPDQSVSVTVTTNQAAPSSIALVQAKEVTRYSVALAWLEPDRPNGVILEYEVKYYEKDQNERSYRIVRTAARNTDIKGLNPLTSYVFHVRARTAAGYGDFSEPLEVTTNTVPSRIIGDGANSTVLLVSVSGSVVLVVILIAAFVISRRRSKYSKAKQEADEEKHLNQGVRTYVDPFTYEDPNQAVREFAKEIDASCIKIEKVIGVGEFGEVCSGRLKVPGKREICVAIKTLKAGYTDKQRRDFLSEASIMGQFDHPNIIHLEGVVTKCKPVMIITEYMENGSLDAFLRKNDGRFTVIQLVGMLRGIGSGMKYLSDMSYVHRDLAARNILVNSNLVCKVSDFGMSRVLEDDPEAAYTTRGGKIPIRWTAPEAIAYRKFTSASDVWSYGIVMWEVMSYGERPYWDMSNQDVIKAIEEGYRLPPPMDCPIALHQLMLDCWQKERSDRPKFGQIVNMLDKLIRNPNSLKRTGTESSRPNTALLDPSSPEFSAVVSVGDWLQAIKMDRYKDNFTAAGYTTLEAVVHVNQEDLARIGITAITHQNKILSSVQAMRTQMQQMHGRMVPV

[1] = target: TYK2 JH1 catalytic (human) (UniProt P29597)
PRKCD (human) = PRKCD (human) (UniProt Q05655)
CAMK1 (human) = CAMK1 (human) (UniProt Q14012)
CAMK1 (human), sequence (Q14012 whole entry, looked up): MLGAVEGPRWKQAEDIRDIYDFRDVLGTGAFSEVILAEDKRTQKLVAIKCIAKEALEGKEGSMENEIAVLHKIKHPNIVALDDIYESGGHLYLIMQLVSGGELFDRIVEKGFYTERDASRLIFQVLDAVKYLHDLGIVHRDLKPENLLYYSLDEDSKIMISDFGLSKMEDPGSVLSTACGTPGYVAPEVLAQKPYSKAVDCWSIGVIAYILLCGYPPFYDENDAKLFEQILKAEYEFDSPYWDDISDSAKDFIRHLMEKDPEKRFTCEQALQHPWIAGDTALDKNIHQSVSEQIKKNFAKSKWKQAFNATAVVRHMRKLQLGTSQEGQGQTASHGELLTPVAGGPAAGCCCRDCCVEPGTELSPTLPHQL

SRC (human) = SRC (human) (UniProt P12931)
SGK2 (human) = SGK2 (human) (UniProt Q9HBY8)
SGK2 (human), sequence (Q9HBY8 whole entry, looked up): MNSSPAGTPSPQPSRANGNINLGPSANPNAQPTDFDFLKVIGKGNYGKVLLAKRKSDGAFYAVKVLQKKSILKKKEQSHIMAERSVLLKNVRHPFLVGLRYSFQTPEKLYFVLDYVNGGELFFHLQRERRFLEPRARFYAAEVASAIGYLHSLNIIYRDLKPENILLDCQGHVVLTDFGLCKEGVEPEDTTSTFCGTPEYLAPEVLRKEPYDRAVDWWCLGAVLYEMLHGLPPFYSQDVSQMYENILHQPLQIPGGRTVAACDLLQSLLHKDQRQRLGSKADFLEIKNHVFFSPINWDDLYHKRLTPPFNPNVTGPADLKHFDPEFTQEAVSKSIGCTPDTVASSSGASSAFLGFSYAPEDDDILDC

CDK3 CCNE1 (human) = CDK3 CCNE1 (human) (UniProt Q00526+P24864)
CDK3 CCNE1 (human), sequence (P24864 whole entry, looked up): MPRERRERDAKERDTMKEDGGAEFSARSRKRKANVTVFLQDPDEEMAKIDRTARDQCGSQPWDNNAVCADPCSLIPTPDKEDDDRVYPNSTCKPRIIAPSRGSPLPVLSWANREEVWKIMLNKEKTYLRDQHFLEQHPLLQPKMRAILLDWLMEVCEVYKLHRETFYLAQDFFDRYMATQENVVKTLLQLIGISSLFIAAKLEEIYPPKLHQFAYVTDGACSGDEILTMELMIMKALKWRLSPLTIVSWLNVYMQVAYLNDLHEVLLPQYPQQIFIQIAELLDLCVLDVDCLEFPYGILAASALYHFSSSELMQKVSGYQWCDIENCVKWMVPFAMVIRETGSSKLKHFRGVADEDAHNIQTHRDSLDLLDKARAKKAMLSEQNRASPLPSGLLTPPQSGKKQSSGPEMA
CDK3 CCNE1 (human), sequence (Q00526 whole entry, looked up): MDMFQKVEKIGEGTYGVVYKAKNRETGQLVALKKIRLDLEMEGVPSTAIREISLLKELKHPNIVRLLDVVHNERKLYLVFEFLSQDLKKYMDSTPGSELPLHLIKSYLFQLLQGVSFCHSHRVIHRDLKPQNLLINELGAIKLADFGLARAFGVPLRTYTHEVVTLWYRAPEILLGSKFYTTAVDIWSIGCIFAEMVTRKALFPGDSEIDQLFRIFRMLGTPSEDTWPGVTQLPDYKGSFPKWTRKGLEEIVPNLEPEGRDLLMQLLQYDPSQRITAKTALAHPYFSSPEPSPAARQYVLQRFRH

MAP3K3 (human) = MAP3K3 (human) (UniProt Q99759)
MAP3K3 (human), sequence (Q99759 whole entry, looked up): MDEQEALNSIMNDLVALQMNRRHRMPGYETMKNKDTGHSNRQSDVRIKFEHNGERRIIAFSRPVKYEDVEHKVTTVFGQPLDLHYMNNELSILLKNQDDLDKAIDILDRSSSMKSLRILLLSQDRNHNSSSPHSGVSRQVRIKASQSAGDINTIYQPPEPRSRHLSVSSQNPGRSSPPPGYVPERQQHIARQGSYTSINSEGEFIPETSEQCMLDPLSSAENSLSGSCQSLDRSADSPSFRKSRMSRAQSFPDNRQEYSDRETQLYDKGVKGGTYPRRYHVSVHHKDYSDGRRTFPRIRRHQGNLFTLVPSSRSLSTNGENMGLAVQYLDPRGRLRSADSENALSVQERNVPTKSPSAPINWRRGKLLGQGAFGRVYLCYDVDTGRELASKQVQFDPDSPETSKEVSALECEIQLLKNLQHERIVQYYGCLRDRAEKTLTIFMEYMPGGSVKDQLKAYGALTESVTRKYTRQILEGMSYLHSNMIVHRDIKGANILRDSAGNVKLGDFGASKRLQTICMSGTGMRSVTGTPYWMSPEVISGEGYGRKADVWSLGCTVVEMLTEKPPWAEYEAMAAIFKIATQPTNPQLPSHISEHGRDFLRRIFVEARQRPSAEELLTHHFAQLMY

WNK3 (human) = WNK3 (human) (UniProt Q9BYP7)
JAK2 JH1 JH2 (human) = JAK2 JH1 JH2 (human) (UniProt O60674)
PRKG2 (human) = PRKG2 (human) (UniProt Q13237)
MAP3K9 (human) = MAP3K9 (human) (UniProt P80192)
MAPK1 (human) = MAPK1 (human) (UniProt P28482)
MAPK1 (human), sequence (P28482 whole entry, looked up): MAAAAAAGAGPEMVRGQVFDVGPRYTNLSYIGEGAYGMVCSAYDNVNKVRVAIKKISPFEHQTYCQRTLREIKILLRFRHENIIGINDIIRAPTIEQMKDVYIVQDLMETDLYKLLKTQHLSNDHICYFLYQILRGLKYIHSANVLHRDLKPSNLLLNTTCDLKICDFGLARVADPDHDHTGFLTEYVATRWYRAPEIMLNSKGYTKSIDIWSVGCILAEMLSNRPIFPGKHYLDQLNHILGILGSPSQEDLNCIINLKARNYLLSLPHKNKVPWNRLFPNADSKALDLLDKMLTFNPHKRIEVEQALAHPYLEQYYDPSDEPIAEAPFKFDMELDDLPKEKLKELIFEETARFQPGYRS

CLK1 (human) = CLK1 (human) (UniProt P49759)
CSNK1G3 (human) = CSNK1G3 (human) (UniProt Q9Y6M4)
EPHA7 (human) = EPHA7 (human) (UniProt Q15375)
DYRK1B (human) = DYRK1B (human) (UniProt Q9Y463)
TSSK1B (human) = TSSK1B (human) (UniProt Q9BXA7)
NTRK2 (human) = NTRK2 (human) (UniProt Q16620)
ALK (human) = ALK (human) (UniProt Q9UM73)
PRKCG (human) = PRKCG (human) (UniProt P05129)
DDR2 (human) = DDR2 (human) (UniProt Q16832)
FGR (human) = FGR (human) (UniProt P09769)
CDK1 CCNB1 (human) = CDK1 CCNB1 (human) (UniProt P06493+P14635)
RAF1 (human) = RAF1 (human) (UniProt P04049)
AKT1 (human) = AKT1 (human) (UniProt P31749)
DYRK3 (human) = DYRK3 (human) (UniProt O43781)

ACVRL1 (human), sequence (P37023 whole entry, looked up): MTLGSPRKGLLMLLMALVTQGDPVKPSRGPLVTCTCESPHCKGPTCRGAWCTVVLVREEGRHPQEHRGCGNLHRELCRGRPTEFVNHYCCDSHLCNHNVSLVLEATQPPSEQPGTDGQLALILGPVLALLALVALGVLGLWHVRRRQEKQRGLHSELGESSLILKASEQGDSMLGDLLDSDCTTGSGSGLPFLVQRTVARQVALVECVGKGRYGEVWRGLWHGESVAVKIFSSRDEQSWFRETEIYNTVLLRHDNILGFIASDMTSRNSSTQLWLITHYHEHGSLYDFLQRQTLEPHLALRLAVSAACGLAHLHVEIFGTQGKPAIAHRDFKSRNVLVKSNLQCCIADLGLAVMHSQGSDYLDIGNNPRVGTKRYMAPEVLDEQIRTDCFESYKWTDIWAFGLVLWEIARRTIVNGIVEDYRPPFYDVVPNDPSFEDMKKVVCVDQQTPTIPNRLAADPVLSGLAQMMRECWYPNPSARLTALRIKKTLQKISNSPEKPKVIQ

SMILES: O=C(CCCc1ccc(-c2ccccc2F)cc1)Nc1ccc(O)cc1
- residual activity (ACVRL1 (human)): 101%
- residual activity (PIM2 (human)): 115%
- residual activity (PIM3 (human)): 104%
- residual activity (RPS6KA5 KD2 (human)): 95.2%
- residual activity (RPS6KA6 KD1 KD2 (human)): 105%
- residual activity (IGF1R (human)): 106%
- residual activity (CDK1 CCNA2 (human)): 93.7%
- residual activity (MAPK13 (human)): 103%
- residual activity (MAP3K5 (human)): 94.3%
- residual activity (MAPK12 (human)): 104%
- residual activity (STK33 (human)): 97%
- residual activity (PAK4 (human)): 95.4%
- residual activity (MKNK2 (human)): 106%
- residual activity (EPHA4 (human)): 99.2%
- residual activity [1]: 96.5%
- residual activity (PRKCD (human)): 110%
- residual activity (CAMK1 (human)): 101%
- residual activity (SRC (human)): 93.7%
- residual activity (SGK2 (human)): 101%
- residual activity (CDK3 CCNE1 (human)): 92.6%
- residual activity (MAP3K3 (human)): 108%
- residual activity (WNK3 (human)): 109%
- residual activity (JAK2 JH1 JH2 (human)): 98.5%
- residual activity (PRKG2 (human)): 102%
- residual activity (MAP3K9 (human)): 100%
- residual activity (MAPK1 (human)): 69.9%
- residual activity (CLK1 (human)): 101%
- residual activity (CSNK1G3 (human)): 104%
- residual activity (EPHA7 (human)): 104%
- residual activity (DYRK1B (human)): 108%
- residual activity (TSSK1B (human)): 107%
- residual activity (NTRK2 (human)): 95.8%
- residual activity (ALK (human)): 97%
- residual activity (PRKCG (human)): 98%
- residual activity (DDR2 (human)): 98.1%
- residual activity (FGR (human)): 96%
- residual activity (CDK1 CCNB1 (human)): 102%
- residual activity (RAF1 (human)): 102%
- residual activity (AKT1 (human)): 97.7%
- residual activity (DYRK3 (human)): 94.5%
